These results are taken from ChEMBL document CHEMBL4325913, “Norharmane as a potential chemical entity for development of anticancer drugs” (Eur J Med Chem, 2019).

pIC50: −log10 of the molar value.

As usually defined, the pIC50 is the negative decadic logarithm of the IC50, by convention in mol/L. Usually inhibition stands for the change of the read-out against control, counted positive when it falls.

Test [1] deals with SMMC-7721. The experiment in a line: Antiproliferative activity against human SMMC7721 cells after 48 hrs by MTT assay. The class given is functional, cell-based. To be noted: SMMC-7721, 48 h. (Formazan colour is commonly taken as a measure of viable cells.)
Test [2] deals with HepG2. The test is described as follows: Antiproliferative activity against human HepG2 cells at 5 uM after 48 hrs by MTT assay relative to control. Format: functional.
Test [3] concerns HepG2. The test is described as follows: Antiproliferative activity against human HepG2 cells at 4 uM after 48 hrs by MTT assay relative to control. The class given is functional.
For test [4], the system named is HGC-27. The experiment in a line: Cytotoxicity against human HGC27 cells assessed as reduction in cell viability after 48 hrs by MTT assay. The class given is functional, cell-based. Particulars: HGC-27, 48 h.
Test [5] has as its system Lewis lung carcinoma cell line. The experiment in a line: Antitumor activity against mouse LLC cells implanted in mouse assessed as tumor growth inhibition at 7.5 mg/kg, ip qd treated for 7 consecutive days starting from 24 hrs post tumor inoculum relative to control. The class given is functional. Particulars: read-out: TGI.
Test [6] has as its system CCRF S-180. The test is described as follows: Antitumor activity against mouse S180 cells implanted in mouse assessed as tumor growth inhibition at 7.5 mg/kg, ip qd treated for 7 consecutive days starting from 24 hrs post tumor inoculum relative to control. Format: functional. Particulars: CCRF S-180, ip, read-out: TGI.
Test [7] concerns the target NAD-dependent protein deacylase sirtuin-5, mitochondrial (Homo sapiens) (UniProt Q9NXA8). The experiment in a line: Inhibition of SIRT5 (unknown origin) at 30 uM relative to control.
Test [8] shares this target. The experiment in a line: Inhibition of SIRT5 (unknown origin) at 100 uM relative to control.

NAD-dependent protein deacylase sirtuin-5, mitochondrial (Homo sapiens), sequence (Q9NXA8 37-310 limits assumed): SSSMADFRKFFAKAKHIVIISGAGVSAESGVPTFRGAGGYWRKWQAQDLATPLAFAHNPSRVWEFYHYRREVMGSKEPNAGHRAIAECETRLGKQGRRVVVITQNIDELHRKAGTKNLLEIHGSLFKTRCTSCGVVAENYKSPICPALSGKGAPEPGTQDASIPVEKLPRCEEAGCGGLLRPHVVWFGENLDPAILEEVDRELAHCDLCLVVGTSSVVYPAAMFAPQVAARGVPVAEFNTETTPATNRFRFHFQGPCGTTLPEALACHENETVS

Take `Cc1nc(C(=O)NCCCCCNC(=O)c2ccccc2O)cc2c1[nH]c1ccccc12`: the pIC50 in test [1] was 5.16.
Regarding `CCCN(Cc1ccc(C(=O)NO)cc1)C(=O)c1cc2c([nH]c3ccccc32)c(-c2ccc(OC)cc2)n1`, the figures for the Activity in test [2] and in test [3] were 34.5% and 61.8%, respectively.
With `COc1cc(-c2nc(Cn3cc(CN4C(=O)c5ccc(C)cc5C4=O)nn3)cc3c2[nH]c2ccccc23)cc(OC)c1OC`, the negative-log IC50 (pIC50) in test [4] was 5.26. Further, the inhibition in vivo at 7.5 mg/kg in test [5] is 46.9%; in test [6] it was 40%.
For the molecule `O=C(NCCn1c2ccccc2c2ccncc21)Nc1ccc(C(=O)O)cc1`, the inhibition in test [7] was 35%; in test [8] it was 52%.
